Among the data in patent US7476677B2, “Substituted thieno- and thiazolo- [2,3-d]pyrimidines and [2,3-c]pyridines as inhibitors of Tie2” (AstraZeneca AB, priority 2004, dated 2009) are IC50 values, retold here.

Assay [1] deals with T1, Tie2 receptor (Homo sapiens, UniProt Q02763).
T1 construct: one can use natural cell lines or primary cells which are known to express the receptor of choice; endogenous in cells; host or cells: EA.hy926/B3 cells (HUVEC named as alternative)
The assay can be described thus: Cellular Tie2 autophosphorylation assay (Test (b)). Type of assay: cell-based. Conditions: Ang1 ligand stimulated Tie2 autophosphorylation, e.g. EA.hy926/B3 cells, western blot. The source says:
b. Cellular Tie2 Autophosphorylation Assay
This assay is based on measuring the ability of compounds to inhibit autophosphorylation of the Tie2 receptor which normally leads to the production of “activated” receptor that in turn initiates the particular signal transduction pathways associated with the receptor function.
Autophosphorylation can be achieved by a number of means. It is known that expression of recombinant kinase domains in baculoviral systems can lead to the production of phosphorylated and activated receptor. […] In these cases the natural, external cell surface domain of the receptor has been replaced with that of a domain which is known to be readily dimerised via the addition of the appropriate ligand (e.g. TrkA-Tie2/NGF ligand (Marron, M. B., et al., 2000 Journal of Biological Chemistry: 275:39741-39746) or C-fms-Tie-1/CSF-1 ligand (Kontos, C. D., et al., 2002 Molecular and Cellular Biology: 22, 1704-1713). Thus when the chimaeric receptor expressed in a host cell line and the respective ligand is added, this induces autophosphorylation of the chimeric receptor's kinase domain. This approach has the advantage of often allowing a known (and often easily obtained) ligand to be used instead of having to identify and isolate the natural ligand for each receptor of interest. […]
(In general: Immunoblotting shows a protein as a band on a membrane.)

Assay [2] addresses T2, Tie2 receptor tyrosine kinase (Homo sapiens, UniProt Q02763).
T2 construct: consist of only the intracellular portion C-terminal portion of the respective receptor, within which is found the kinase domain; made in house; host or cells: baculovirus/Sf21 insect cells, used as cleared lysate
The assay can be described thus: In vitro receptor tyrosine kinase inhibition assay (Test (a), ELISA based). In kind it is biochemical. Conditions: recombinant human kinase domain lysate, synthetic peptide substrate, ATP 5 micromolar or Km. The protocol:
a. In Vitro Receptor Tyrosine Kinase Inhibition Assay
To test for inhibition of Tie2 receptor tyrosine kinase, compounds are evaluated in a non-cell based protein kinase assay by their ability to inhibit the protein kinase enzyme phosphorylation of a tyrosine containing polypeptide substrate in an ELISA based microtitre plate assay. In this particular case, the assay was to determine the IC50, for three different recombinant human tyrosine kinases Tie2, KDR and Flt.
To facilitate production of the tyrosine kinases, recombinant receptor genes were produced using standard molecular biology cloning and mutagenesis techniques. […]
Constitutive kinase activity of these recombinant proteins was determined by their ability to phosphorylate a synthetic peptide (made up of a random co-polymer of Glutamic Acid, Alanine and Tyrosine in the ratio of 6:3:1). […]
The immobilised phospho-peptide product of the reaction was detected by immunological methods. […] Following extensive washing with PBS-T, HRP activity in each well of the plate was measured colorimetrically using 22′-Azino-di-[3-ethylbenzthiazoline sulfonate (6)] diammonium salt crystals ABTS (Sigma P4922—prepared as per manufactures instructions) as a substrate incubated for 30-45 minutes to allow colour development, before 100 ul of 1M H2SO4 was added to stop the reaction. […]

T2 sequence (Q02763 770-1124 limits assumed): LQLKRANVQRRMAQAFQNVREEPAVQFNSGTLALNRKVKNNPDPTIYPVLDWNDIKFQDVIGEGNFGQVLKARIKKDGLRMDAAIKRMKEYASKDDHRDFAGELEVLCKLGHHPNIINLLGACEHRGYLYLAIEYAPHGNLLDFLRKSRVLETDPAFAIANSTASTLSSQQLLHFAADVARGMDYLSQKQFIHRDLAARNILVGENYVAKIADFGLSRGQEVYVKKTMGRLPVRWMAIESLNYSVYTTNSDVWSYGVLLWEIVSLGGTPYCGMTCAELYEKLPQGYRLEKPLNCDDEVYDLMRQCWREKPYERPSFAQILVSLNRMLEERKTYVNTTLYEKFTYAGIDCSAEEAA
T1 sequence (Q02763 23-1124): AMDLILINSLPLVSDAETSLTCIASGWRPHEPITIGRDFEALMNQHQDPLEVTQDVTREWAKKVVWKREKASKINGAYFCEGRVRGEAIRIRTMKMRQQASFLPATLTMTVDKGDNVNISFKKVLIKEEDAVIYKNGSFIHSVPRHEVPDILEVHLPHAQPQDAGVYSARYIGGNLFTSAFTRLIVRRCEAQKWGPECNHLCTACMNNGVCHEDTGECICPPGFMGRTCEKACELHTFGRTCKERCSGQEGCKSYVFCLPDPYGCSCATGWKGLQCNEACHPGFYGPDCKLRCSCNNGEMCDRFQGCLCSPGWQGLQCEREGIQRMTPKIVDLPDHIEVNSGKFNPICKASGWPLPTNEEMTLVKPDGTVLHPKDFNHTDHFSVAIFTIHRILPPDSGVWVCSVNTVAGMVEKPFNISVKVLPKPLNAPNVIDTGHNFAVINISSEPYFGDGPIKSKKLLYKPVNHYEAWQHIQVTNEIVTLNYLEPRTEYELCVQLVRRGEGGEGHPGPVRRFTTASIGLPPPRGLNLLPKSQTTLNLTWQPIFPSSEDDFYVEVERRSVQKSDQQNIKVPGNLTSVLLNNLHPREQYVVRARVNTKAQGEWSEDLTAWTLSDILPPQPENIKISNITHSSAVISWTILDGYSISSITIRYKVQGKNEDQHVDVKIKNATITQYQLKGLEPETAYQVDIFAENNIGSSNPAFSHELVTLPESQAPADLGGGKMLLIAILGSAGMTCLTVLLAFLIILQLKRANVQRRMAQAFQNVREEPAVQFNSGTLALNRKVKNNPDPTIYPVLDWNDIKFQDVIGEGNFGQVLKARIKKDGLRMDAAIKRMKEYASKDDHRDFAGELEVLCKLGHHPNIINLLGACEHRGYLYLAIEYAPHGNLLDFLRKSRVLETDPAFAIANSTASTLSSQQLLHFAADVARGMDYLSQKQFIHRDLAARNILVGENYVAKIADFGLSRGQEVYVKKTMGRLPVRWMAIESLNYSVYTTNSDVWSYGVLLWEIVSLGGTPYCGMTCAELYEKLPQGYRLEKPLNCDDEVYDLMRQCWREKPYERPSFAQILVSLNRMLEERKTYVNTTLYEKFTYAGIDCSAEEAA

A word on the IC50: it is the concentration that gives 50% inhibition. `Cn1cnc(-c2cccc(NC(=O)Nc3cccc(F)c3)c2)c1-c1cc2c(N)ncnc2s1` [Example 1, N-{3-[5-(4-Aminothieno[2,3-d]pyrimidin-6-yl)-1-methyl-1H-imidazol-4-yl]phenyl}-N′-(3-fluorophenol)urea]: the IC50 is 0.4 µM in assay [1] and 16 µM in assay [2].
